PubChem BioAssay (NCI)
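Five compound concentrations were applied to cells in 96-well plates for 48 hours; endpoints were derived by simple linear interpolation of the resulting dose-response curve. Abbreviation: GI50, concentration required for 50% inhibition of growth. TGI: total growth inhibition.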

Tests used:
Assay in all cases: NCI anticancer screen, dose series, 48 h
UO-31 renal = system: UO-31 renal
HOP-62 NSCLC = system: HOP-62 NSCLC
RXF 393 renal = system: RXF 393 renal
COLO 205 colon = system: COLO 205 colon
A498 renal = system: A498 renal
MDA-MB-435 = system: MDA-MB-435
CCRF-CEM leukemia = system: CCRF-CEM leukemia
TK-10 renal = system: TK-10 renal
CAKI-1 renal = system: CAKI-1 renal
MOLT-4 leukemia = system: MOLT-4 leukemia
MDA-MB-231 breast = system: MDA-MB-231 breast
KM12 colon = system: KM12 colon
OVCAR-8 ovarian = system: OVCAR-8 ovarian
UACC-257 melanoma = system: UACC-257 melanoma
U251 CNS = system: U251 CNS
HOP-92 NSCLC = system: HOP-92 NSCLC
NCI-H522 lung = system: NCI-H522 lung
SW-620 colon = system: SW-620 colon
A549 NSCLC = system: A549 NSCLC
M14 melanoma = system: M14 melanoma
IGROV1 ovarian = system: IGROV1 ovarian
PC-3 prostate = system: PC-3 prostate
HS 578T breast = system: HS 578T breast
SK-OV-3 ovarian = system: SK-OV-3 ovarian
OVCAR-3 ovarian = system: OVCAR-3 ovarian
EKVX NSCLC = system: EKVX NSCLC
NCI/ADR-RES ovarian = system: NCI/ADR-RES ovarian

**Q.** Nc1ccccc1C#C/C=C\C#Cc1ccccc1[N+](=O)[O-] was tested. Which GI50 (UO-31 renal) did it give?
**A.** 10.5 µM

**Q.** And the TGI (UO-31 renal)?
**A.** 28.4 µM

**Q.** What about the GI50 (HOP-62 NSCLC) of the same compound?
**A.** 17.5 µM

**Q.** And the TGI (HOP-62 NSCLC)?
**A.** 48.6 µM

**Q.** And the GI50 (RXF 393 renal)?
**A.** 2.07 µM

**Q.** What about the TGI (RXF 393 renal) of the same compound?
**A.** 9.06 µM

**Q.** What about the GI50 (COLO 205 colon) of the same compound?
**A.** 4.38 µM

**Q.** What about the TGI (COLO 205 colon) of the same compound?
**A.** 22 µM

**Q.** And the GI50 (A498 renal)?
**A.** 25.4 µM

**Q.** What about the TGI (A498 renal) of the same compound?
**A.** 69.7 µM

**Q.** And the GI50 (MDA-MB-435)?
**A.** 0.402 µM

**Q.** And the TGI (MDA-MB-435)?
**A.** 14.1 µM

**Q.** What about the GI50 (CCRF-CEM leukemia) of the same compound?
**A.** 3.75 µM

**Q.** And the TGI (CCRF-CEM leukemia)?
**A.** 18.1 µM

**Q.** And the GI50 (TK-10 renal)?
**A.** 28.2 µM

**Q.** What about the TGI (TK-10 renal) of the same compound?
**A.** > 100 µM

**Q.** What about the GI50 (CAKI-1 renal) of the same compound?
**A.** 3.28 µM

**Q.** What about the TGI (CAKI-1 renal) of the same compound?
**A.** 23 µM

**Q.** And the GI50 (MOLT-4 leukemia)?
**A.** 27.7 µM

**Q.** And the TGI (MOLT-4 leukemia)?
**A.** > 100 µM

**Q.** What about the GI50 (MDA-MB-231 breast) of the same compound?
**A.** 2.61 µM

**Q.** And the TGI (MDA-MB-231 breast)?
**A.** 14.6 µM

**Q.** What about the GI50 (KM12 colon) of the same compound?
**A.** 3.19 µM

**Q.** What about the TGI (KM12 colon) of the same compound?
**A.** 70.6 µM

**Q.** And the GI50 (OVCAR-8 ovarian)?
**A.** 4.83 µM

**Q.** And the TGI (OVCAR-8 ovarian)?
**A.** 32.9 µM

**Q.** What about the GI50 (UACC-257 melanoma) of the same compound?
**A.** 4.98 µM

**Q.** What about the TGI (UACC-257 melanoma) of the same compound?
**A.** 20 µM

**Q.** What about the GI50 (U251 CNS) of the same compound?
**A.** 3.72 µM

**Q.** What about the TGI (U251 CNS) of the same compound?
**A.** 18.9 µM

**Q.** What about the GI50 (HOP-92 NSCLC) of the same compound?
**A.** 31.7 µM

**Q.** And the TGI (HOP-92 NSCLC)?
**A.** > 100 µM

**Q.** What about the GI50 (NCI-H522 lung) of the same compound?
**A.** 7.25 µM

**Q.** What about the TGI (NCI-H522 lung) of the same compound?
**A.** 39.8 µM

**Q.** And the GI50 (SW-620 colon)?
**A.** 0.942 µM

**Q.** And the TGI (SW-620 colon)?
**A.** 88.8 µM

**Q.** What about the GI50 (A549 NSCLC) of the same compound?
**A.** 4.42 µM

**Q.** And the TGI (A549 NSCLC)?
**A.** 21.3 µM

**Q.** What about the GI50 (M14 melanoma) of the same compound?
**A.** 8.08 µM

**Q.** And the TGI (M14 melanoma)?
**A.** 26.9 µM

**Q.** And the GI50 (IGROV1 ovarian)?
**A.** 10.9 µM

**Q.** What about the TGI (IGROV1 ovarian) of the same compound?
**A.** 79.8 µM

**Q.** What about the GI50 (PC-3 prostate) of the same compound?
**A.** 6.82 µM

**Q.** And the TGI (PC-3 prostate)?
**A.** > 100 µM

**Q.** What about the GI50 (HS 578T breast) of the same compound?
**A.** 4.99 µM

**Q.** And the TGI (HS 578T breast)?
**A.** > 100 µM

**Q.** And the GI50 (SK-OV-3 ovarian)?
**A.** 9.26 µM

**Q.** What about the TGI (SK-OV-3 ovarian) of the same compound?
**A.** 60.9 µM

**Q.** What about the GI50 (OVCAR-3 ovarian) of the same compound?
**A.** 4.03 µM

**Q.** And the TGI (OVCAR-3 ovarian)?
**A.** 37 µM

**Q.** And the GI50 (EKVX NSCLC)?
**A.** 2.51 µM

**Q.** And the TGI (EKVX NSCLC)?
**A.** 17.8 µM

**Q.** What about the GI50 (NCI/ADR-RES ovarian) of the same compound?
**A.** 1.23 µM

**Q.** What about the TGI (NCI/ADR-RES ovarian) of the same compound?
**A.** 6.47 µM
